Laboratory results from ChEMBL document CHEMBL1144455, “A small molecule-kinase interaction map for clinical kinase inhibitors” (Nat Biotechnol, 2005).

How the values were obtained:
[1] = target: Serine/threonine-protein kinase PAK 5 (Homo sapiens, UniProt Q9P286)
[2] = target: Tyrosine-protein kinase Yes (Homo sapiens, UniProt P07947)
[3] = target: Tyrosine-protein kinase BTK (Homo sapiens, UniProt Q06187)
[4] = target: Mitogen-activated protein kinase kinase kinase 4 (Homo sapiens, UniProt Q9Y6R4)
[5] = target: Calcium/calmodulin-dependent protein kinase kinase 2 (Homo sapiens, UniProt Q96RR4)
[6] = target: Calcium/calmodulin-dependent protein kinase kinase 1 (Homo sapiens, UniProt Q8N5S9)
Ephrin type-A receptor 7 = Ephrin type-A receptor 7 (Homo sapiens, UniProt Q15375)
[7] = target: T1, Serine/threonine-protein kinase 4 (Homo sapiens, UniProt Q13043)
T1 sequence (Q13043 whole entry): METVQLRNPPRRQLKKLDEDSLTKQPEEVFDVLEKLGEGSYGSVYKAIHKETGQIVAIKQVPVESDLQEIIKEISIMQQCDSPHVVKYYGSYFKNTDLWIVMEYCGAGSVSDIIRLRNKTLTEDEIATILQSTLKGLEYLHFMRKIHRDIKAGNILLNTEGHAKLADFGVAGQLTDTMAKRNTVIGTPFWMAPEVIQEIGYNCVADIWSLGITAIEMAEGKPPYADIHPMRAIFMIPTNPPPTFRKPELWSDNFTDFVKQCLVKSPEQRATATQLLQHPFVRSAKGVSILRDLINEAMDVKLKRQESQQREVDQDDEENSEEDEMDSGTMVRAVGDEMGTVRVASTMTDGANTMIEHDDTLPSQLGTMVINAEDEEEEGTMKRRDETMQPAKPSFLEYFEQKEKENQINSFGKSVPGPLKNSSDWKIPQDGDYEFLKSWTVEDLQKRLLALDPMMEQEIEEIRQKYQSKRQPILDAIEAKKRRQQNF

Ephrin type-A receptor 5 = Ephrin type-A receptor 5 (Homo sapiens, UniProt P54756)
Ephrin type-A receptor 3 = target: T2, Ephrin type-A receptor 3 (Homo sapiens, UniProt P29320)
T2 sequence (P29320 whole entry): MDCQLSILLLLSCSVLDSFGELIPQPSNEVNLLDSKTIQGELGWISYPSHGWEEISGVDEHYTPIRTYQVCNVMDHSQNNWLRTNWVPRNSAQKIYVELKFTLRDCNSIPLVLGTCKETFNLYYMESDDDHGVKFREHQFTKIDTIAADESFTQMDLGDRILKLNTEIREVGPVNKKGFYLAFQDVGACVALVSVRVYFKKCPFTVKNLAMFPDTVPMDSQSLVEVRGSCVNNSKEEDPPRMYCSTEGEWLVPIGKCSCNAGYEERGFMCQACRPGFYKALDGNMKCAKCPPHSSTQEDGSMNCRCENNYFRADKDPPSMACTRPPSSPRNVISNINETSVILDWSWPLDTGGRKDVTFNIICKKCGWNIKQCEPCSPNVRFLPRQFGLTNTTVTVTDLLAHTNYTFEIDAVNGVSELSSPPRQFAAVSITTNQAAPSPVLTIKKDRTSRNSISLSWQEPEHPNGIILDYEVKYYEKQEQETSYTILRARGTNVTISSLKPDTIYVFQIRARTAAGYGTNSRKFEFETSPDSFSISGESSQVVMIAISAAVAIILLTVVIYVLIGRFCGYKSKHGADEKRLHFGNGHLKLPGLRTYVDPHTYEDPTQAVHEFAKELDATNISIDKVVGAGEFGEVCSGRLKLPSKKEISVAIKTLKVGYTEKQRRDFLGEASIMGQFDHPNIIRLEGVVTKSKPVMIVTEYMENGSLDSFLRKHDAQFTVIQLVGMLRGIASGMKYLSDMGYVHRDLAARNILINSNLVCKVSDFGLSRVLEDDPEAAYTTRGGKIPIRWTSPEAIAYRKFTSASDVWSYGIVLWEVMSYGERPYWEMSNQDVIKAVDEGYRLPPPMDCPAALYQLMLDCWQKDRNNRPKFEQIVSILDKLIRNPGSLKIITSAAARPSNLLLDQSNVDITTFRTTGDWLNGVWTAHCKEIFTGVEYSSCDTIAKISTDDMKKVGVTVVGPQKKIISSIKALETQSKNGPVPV

[8] = target: Serine/threonine-protein kinase 10 (Homo sapiens, UniProt O94804)
[9] = target: T3, Serine/threonine-protein kinase 17B (Homo sapiens, UniProt O94768)
T3 sequence (O94768 whole entry): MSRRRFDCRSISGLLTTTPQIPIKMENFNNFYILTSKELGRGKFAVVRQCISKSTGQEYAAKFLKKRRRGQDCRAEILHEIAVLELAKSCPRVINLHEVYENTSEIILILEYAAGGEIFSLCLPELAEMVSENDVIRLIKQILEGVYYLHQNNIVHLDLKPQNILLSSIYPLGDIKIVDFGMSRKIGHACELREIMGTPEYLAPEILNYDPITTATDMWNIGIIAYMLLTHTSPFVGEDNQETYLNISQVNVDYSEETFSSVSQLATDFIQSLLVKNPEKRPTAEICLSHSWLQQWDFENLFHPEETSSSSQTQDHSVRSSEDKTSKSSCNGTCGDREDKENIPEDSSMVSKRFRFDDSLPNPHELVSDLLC

[10] = target: AP2-associated protein kinase 1 (Homo sapiens, UniProt Q2M2I8)
Angiopoietin-1 receptor = Angiopoietin-1 receptor (Homo sapiens, UniProt Q02763)
[11] = target: Tyrosine-protein kinase HCK (Homo sapiens, UniProt P08631)
Focal adhesion kinase 1 = Focal adhesion kinase 1 (Homo sapiens, UniProt Q05397)
[12] = target: Tyrosine-protein kinase JAK1 (Homo sapiens, UniProt P23458)
[13] = target: Death-associated protein kinase 3 (Homo sapiens, UniProt O43293)
[14] = target: Serine/threonine-protein kinase PAK 1 (Homo sapiens, UniProt Q13153)
[15] = target: Protein-tyrosine kinase 6 (Homo sapiens, UniProt Q13882)
[16] = target: Serine/threonine-protein kinase 38-like (Homo sapiens, UniProt Q9Y2H1)
[17] = target: Cyclin-dependent kinase 5 (Homo sapiens, UniProt Q00535)

Measured: Kd

Sequence of AP2-associated protein kinase 1 (Q2M2I8 whole entry): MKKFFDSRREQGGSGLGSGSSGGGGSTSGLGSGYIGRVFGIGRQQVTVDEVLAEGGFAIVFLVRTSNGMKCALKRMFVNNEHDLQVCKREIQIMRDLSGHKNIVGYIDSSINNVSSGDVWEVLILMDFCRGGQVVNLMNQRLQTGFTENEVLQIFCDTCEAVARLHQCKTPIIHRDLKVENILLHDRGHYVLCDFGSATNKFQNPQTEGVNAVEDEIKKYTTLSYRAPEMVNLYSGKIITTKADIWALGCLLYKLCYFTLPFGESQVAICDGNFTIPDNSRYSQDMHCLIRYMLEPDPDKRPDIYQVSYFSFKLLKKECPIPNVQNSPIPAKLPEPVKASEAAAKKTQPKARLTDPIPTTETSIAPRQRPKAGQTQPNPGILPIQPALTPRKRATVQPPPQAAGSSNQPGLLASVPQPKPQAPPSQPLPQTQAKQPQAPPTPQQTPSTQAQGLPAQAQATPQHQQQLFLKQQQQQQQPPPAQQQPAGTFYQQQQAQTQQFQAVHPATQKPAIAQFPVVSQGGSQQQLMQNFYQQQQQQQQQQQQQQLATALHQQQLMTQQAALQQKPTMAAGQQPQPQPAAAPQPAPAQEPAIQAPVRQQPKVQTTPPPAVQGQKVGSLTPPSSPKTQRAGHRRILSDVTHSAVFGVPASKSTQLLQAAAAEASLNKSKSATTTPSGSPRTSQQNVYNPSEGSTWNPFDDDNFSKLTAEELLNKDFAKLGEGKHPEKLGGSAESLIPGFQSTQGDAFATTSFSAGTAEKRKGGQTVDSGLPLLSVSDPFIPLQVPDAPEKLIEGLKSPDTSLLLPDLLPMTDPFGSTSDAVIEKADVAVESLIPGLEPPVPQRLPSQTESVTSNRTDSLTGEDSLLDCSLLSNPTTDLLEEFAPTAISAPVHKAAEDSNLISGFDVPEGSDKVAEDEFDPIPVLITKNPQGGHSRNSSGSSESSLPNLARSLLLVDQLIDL
Sequence of Serine/threonine-protein kinase 10 (O94804 whole entry): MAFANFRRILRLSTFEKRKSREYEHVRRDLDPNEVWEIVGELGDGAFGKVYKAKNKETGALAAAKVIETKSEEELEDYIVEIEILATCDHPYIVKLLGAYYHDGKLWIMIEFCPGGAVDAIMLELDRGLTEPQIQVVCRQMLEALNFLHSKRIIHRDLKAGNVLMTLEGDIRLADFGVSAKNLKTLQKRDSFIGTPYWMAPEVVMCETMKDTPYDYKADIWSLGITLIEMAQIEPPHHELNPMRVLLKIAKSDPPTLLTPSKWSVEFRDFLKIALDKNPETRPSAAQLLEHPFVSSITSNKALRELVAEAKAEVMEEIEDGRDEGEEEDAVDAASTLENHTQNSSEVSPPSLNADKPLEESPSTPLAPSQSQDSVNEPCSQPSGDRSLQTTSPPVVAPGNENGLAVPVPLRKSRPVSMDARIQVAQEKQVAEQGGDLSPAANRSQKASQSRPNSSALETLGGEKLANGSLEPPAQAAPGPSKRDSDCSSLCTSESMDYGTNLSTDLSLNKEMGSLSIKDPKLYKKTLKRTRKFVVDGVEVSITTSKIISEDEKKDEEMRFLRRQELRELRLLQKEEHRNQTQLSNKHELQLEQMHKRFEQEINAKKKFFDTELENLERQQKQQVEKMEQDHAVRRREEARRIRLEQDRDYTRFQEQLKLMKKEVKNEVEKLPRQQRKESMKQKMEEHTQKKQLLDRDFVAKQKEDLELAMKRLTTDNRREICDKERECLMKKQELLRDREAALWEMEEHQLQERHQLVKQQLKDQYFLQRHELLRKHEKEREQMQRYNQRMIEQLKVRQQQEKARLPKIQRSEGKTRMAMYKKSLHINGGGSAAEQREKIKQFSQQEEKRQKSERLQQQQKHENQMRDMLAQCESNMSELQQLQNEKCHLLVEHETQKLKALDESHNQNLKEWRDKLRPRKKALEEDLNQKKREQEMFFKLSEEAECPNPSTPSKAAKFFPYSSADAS
Sequence of Cyclin-dependent kinase 5 (Q00535 whole entry): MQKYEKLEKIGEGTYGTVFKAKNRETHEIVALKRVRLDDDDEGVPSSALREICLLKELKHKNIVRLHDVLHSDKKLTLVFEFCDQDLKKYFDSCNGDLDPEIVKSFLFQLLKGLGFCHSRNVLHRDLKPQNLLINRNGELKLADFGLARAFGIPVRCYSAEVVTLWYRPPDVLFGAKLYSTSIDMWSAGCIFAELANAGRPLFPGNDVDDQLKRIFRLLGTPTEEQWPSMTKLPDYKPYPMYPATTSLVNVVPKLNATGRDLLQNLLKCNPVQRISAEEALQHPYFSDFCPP
Sequence of Serine/threonine-protein kinase 38-like (Q9Y2H1 whole entry): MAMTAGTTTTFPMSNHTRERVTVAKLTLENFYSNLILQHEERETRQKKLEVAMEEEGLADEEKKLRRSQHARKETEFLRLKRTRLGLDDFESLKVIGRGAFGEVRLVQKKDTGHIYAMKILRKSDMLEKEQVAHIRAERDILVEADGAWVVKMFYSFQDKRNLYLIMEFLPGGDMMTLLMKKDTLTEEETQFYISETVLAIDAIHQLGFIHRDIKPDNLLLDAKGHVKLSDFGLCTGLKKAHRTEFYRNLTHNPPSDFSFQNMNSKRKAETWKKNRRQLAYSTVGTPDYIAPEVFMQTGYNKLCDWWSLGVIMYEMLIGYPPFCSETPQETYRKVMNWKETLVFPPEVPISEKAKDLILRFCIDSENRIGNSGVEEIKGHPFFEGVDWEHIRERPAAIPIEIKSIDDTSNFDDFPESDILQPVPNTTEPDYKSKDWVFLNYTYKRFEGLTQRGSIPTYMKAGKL
Sequence of Focal adhesion kinase 1 (Q05397 whole entry): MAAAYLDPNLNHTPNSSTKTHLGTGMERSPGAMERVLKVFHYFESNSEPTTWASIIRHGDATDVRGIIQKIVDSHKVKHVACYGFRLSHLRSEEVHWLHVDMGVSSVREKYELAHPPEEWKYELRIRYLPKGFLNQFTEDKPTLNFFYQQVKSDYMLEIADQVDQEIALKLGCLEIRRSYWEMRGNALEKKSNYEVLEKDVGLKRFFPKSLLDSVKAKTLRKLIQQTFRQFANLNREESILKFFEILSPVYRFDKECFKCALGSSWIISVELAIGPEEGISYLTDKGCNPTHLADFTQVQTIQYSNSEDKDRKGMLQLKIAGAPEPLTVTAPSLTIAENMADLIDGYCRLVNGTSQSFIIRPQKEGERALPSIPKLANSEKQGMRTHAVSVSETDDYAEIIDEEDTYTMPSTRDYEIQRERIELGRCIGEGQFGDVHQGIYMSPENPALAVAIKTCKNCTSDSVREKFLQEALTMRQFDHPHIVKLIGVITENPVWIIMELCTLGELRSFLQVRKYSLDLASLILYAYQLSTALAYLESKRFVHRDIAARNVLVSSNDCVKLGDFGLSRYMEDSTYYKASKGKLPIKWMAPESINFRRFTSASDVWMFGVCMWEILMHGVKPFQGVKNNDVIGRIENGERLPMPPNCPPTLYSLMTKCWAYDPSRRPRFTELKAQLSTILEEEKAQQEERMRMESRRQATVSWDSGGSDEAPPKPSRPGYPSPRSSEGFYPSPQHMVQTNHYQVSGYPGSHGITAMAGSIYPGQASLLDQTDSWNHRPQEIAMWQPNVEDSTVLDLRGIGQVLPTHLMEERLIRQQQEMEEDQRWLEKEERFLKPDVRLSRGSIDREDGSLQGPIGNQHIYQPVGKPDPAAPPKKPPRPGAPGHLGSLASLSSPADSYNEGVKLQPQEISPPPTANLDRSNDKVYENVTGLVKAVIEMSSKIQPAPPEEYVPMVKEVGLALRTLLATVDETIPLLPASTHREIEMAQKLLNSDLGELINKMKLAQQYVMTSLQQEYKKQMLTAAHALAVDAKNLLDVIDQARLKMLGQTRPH
Sequence of Tyrosine-protein kinase HCK (P08631 whole entry): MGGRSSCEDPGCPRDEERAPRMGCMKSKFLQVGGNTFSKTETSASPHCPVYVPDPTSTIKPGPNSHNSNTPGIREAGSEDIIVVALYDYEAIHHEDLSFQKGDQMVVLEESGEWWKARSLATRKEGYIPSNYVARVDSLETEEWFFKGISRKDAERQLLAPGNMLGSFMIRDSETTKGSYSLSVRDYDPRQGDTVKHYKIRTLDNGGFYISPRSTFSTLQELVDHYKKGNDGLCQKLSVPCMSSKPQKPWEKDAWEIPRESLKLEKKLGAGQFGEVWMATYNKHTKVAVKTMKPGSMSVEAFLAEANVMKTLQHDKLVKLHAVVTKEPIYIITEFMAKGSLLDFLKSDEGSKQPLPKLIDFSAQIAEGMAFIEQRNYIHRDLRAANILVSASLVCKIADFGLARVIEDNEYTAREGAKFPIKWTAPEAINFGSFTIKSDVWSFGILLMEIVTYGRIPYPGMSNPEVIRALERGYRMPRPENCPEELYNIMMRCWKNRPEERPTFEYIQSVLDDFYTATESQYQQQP
Sequence of Calcium/calmodulin-dependent protein kinase kinase 1 (Q8N5S9 whole entry): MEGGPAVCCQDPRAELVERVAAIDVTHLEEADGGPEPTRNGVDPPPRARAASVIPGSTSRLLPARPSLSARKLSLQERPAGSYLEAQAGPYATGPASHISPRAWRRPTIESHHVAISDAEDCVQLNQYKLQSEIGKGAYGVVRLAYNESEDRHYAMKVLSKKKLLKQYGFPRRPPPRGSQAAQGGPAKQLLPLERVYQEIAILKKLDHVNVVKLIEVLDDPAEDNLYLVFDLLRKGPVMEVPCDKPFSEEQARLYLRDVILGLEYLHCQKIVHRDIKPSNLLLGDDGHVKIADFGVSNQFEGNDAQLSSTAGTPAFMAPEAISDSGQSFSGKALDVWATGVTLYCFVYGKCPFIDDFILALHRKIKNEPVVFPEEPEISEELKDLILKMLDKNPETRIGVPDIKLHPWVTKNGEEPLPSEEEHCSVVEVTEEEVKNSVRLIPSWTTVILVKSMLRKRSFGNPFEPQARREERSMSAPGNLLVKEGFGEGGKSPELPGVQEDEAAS

CC[C@H](CO)Nc1nc(NCc2ccccc2)c2ncn(C(C)C)c2n1 [SELICICLIB]
Not Active: [1] | [2] | [3] | [4] | [5] | [6] | Ephrin type-A receptor 7 | [7] | Ephrin type-A receptor 5 | Ephrin type-A receptor 3 | [8] | [9] | [10] | Angiopoietin-1 receptor | [11] | Focal adhesion kinase 1 | [12] | [13] | [14] | [15] | [16]

COc1cc2c(N3CCN(C(=O)Nc4ccc(OC(C)C)cc4)CC3)ncnc2cc1OCCCN1CCCCC1 [TANDUTINIB]
Not Active: [1] | [2] | [17] | [3] | [4] | [5] | [6] | Ephrin type-A receptor 7 | [7] | Ephrin type-A receptor 5 | Ephrin type-A receptor 3 | [8] | [9] | [10] | Angiopoietin-1 receptor | [11] | Focal adhesion kinase 1 | [12] | [13] | [14] | [15] | [16]

Oc1ccc(-c2nc(-c3ccc(F)cc3)c(-c3ccncc3)[nH]2)cc1 [SB-202190]
Not Active: [1] | [2] | [17] | [3] | [4] | [5] | [6] | Ephrin type-A receptor 7 | [7] | Ephrin type-A receptor 5 | Ephrin type-A receptor 3 | [8] | [9] | [10] | Angiopoietin-1 receptor | [11] | Focal adhesion kinase 1 | [12] | [13] | [14] | [16]

C[S+]([O-])c1ccc(-c2nc(-c3ccc(F)cc3)c(-c3ccncc3)[nH]2)cc1 (stereo not given) [SB-203580]
Not Active: [1] | [2] | [17] | [3] | [4] | [5] | [6] | Ephrin type-A receptor 7 | [7] | Ephrin type-A receptor 5 | Ephrin type-A receptor 3 | [8] | [9] | [10] | Angiopoietin-1 receptor | [11] | Focal adhesion kinase 1 | [12] | [13] | [14] | [16]

CCOc1cc2ncc(C#N)c(Nc3ccc(F)c(Cl)c3)c2cc1NC(=O)/C=C/CN(C)C [PELITINIB]
Not Active: [1] | [17] | [6] | Ephrin type-A receptor 7 | [12] | [15]

O=c1ncn2nc(Sc3ccc(F)cc3F)ccc2c1-c1c(Cl)cccc1Cl [NEFLAMAPIMOD]
Not Active: [1] | [17] | [3] | [4] | [5] | [6] | Ephrin type-A receptor 7 | [7] | Ephrin type-A receptor 3 | [8] | [9] | [10] | Angiopoietin-1 receptor | Focal adhesion kinase 1 | [12] | [13] | [14] | [15] | [16]

Oc1c2ccccc2c2c3c(cccc13)N=N2 [SP-600125]
Not Active: [1] | [2] | [3] | [4] | [6] | Ephrin type-A receptor 7 | Ephrin type-A receptor 5 | [8] | [9] | Angiopoietin-1 receptor | [11] | Focal adhesion kinase 1 | [12] | [14] | [15]

C#Cc1cccc(Nc2ncnc3cc(OCCOC)c(OCCOC)cc23)c1 [ERLOTINIB]
Not Active: [1] | [2] | [17] | [3] | [4] | [5] | [6] | Ephrin type-A receptor 7 | [7] | Ephrin type-A receptor 5 | Ephrin type-A receptor 3 | [9] | Angiopoietin-1 receptor | [11] | Focal adhesion kinase 1 | [12] | [13] | [14] | [15] | [16]
